From patent publication US7601856B2 (Wyeth, priority 2006, dated 2009)
Like-named read-outs stand apart in the source and are kept apart here.

Experiments:
[1] = system: isolated rat bladder strips; test: Inhibition of contractions of isolated rat bladder strips; conditions: for IC50: 0.5 h, concentration eliciting 50% inhibition of pre-drug contractile activity, 30 minute challenge per concentration, read-out: IC50; for inhibition at 30 µM: read-out: % Inhibition of Contractility @ 30 μM
Experimental: The compounds of the examples were tested to determine their ability to inhibit contractions of isolated rat bladder strips. See Foster, C. […] Malmgren, A. et al. J.Urol.
Male Sprague-Dawley rats (150-200 g) were obtained from ACE animal suppliers. Animals were allowed free access to food and water.
Animals were euthanized by CO2 asphyxiation followed by a bilateral thoracotomy. […] The bladder was opened and then cut into strips 1-2 mm in width and 7-10 mm in length. The strips were subsequently suspended in a 10 ml tissue bath under an initial resting tension of 1.5 g. The strips were held in place by two surgical clips one of which was attached to a fixed hook while the other was attached to an isometric force transducer. […] The carbachol was then washed out and the tissue allowed to relax to its resting level of activity. Following a further 30 minute period of recovery an additional 15 mM KCl were introduced into the tissue bath. […] Following stabilization of this enhanced level of contractile activity, incremental increases in the concentration of test compound or vehicle were introduced into the tissue bath. Contractile activity was measured for each compound or vehicle concentration during the last minute of a 30 minute challenge.
Isometric force developed by the bladder strips was measured using a force transducer and recorded on a polygraph. Contractile activity was assessed by measuring either the average amplitude of the contractions (baseline to peak force) occurring during a one minute period or, preferably, by integrating the contractile activity with respect to time (one minute measuring period).
The percentage inhibition of contractile activity evoked by each concentration of a given test compounds was used to generate a concentration-response curve.

[2] = strips stimulated with additional 15 mM KCl
[3] = maximum percentage inhibition of contractile activity, 30 μM, strips stimulated with additional 15 mM KCl

| Compound | IC50 [1, 2] [nM] | melting point | inhibition at 30 µM [1, 3] [%] | inhibition at 30 µM [1] [%] |
| --- | --- | --- | --- | --- |
| CC(C)(C)CC(=O)Nc1ccc2oc3c(c2c1)CCCCCC3 [Example 62, 3,3-DIMETHYL-N-[6,7,8,9,10,11-HEXAHYDRO-BENZO[B]-CYCLOOCTA[D]FURAN-2-YL]BUTYRAMIDE] | 1000 to 5000 | 157 to 158 °C |  |  |
| COc1ccc(C(=O)Nc2ccc3oc4c(c3c2)CCCC4)cc1 [Example 13, 4-METHOXY-N-(6,7,8,9-TETRAHYDRO-DIBENZOFURAN-2-YL)-BENZAMIDE] |  | 197 to 197.5 °C | 15 to 25 |  |
| CCC(=O)Nc1ccc2oc3c(c2c1)CCCC3 [Example 8, N-(6,7,8,9-TETRAHYDRO-DIBENZOFURAN-2-yl)-PROPIONAMIDE] | 4000 to 8000 | 164 to 165 °C |  |  |
| O=C(Nc1ccc2oc3c(c2c1)CCCC3)c1ccc([N+](=O)[O-])cc1 [Example 15, 4-NITRO-N-(6,7,8,9-TETRAHYDRO-DIBENZOFURAN-2-YL)-BENZAMIDE] |  | 279 to 280 °C | 10 to 20 |  |
| CC(C)(C)C(=O)Nc1ccc2oc3c(c2c1)CCCCC3 [Example 27, 2,2-DIMETHYL-N-(6,7,8,9-TETRAHYDRO-5H-10-OXA-BENZO[A]AZULEN-3-YL)-PROPIONAMIDE] | 100 to 400 | 208 to 209 °C |  |  |
| CC(C)CC(=O)Nc1ccc2oc3c(c2c1)CCCCCC3 [Example 64, 3-METHYL-N-[6,7,8,9,10,11-HEXAHYDRO-BENZO[B]-CYCLOOCTA[D]-FURAN-2-YL]BUTYRAMIDE] | 100 to 500 | 154 to 155 °C |  |  |
| CC(C)(C)C(=O)Nc1ccc2oc3c(c2c1)CCC3 [Example 24, N-(2,3-DIHYDRO-1H-CYCLOPENTA(b)BENZOFURAN-7-YL)-2,2-DIMETHYL-PROPIONAMIDE] | 1000 to 5000 | 188.5 to 190 °C |  |  |
| O=C(CC1CCCCC1)Nc1ccc2oc3c(c2c1)CCCCC3 [Example 29, 2-CYCLOHEXYL-N-[7,8,9,10-TETRAHYDRO-6H-BENZO[B]-CYCLOHEPTA[d]FURAN-2-YL]ACETAMIDE] | 1000 to 10000 | 188 to 189 °C |  |  |
| CC(C)(C)c1ccc(C(=O)Nc2ccc3oc4c(c3c2)CCCC4)cc1 [Example 6, 4-TERT-BUTYL-N-(6,7,8,9-TETRAHYDRO-DIBENZOFURAN-2-YL)-BENZAMIDE] |  | 185 to 186 °C | 10 to 20 |  |
| CC(C)(C)CC(=O)Nc1ccc2oc3c(c2c1)CCCCC3 [Example 26, 3,3-DIMETHYL-N-[7,8,9,10-TETRAHYDRO-6H-Benzo[B]-CYCLOHEPTA[d]FURAN-2-YL]BUTYRAMIDE] | 200 to 700 | 182 to 183 °C |  |  |
| CC(C)C(=O)Nc1ccc2oc3c(c2c1)CCCC3 [Example 9, N-(6,7,8,9-TETRAHYDRO-DIBENZOFURAN-2-YL)-ISOBUTYRAMIDE] | 6000 to 8000 | 206.5 to 208 °C |  |  |
| CC(C)(C)NC(=O)Nc1ccc2oc3c(c2c1)CCCC3 [Example 83, 1-TERT-BUTYL-3-(6,7,8,9-TETRAHYDRO-DIBENZOFURAN-2-YL)-UREA] | 4000 to 5000 | 310 to 312 °C (dec.) |  |  |
| CC(C)(C)C(=O)Nc1ccc2oc3c(c2c1)CCCCCC3 [Example 63, 2,2-DIMETHYL-N-[6,7,8,9,10,11-HEXAHYDRO-BENZO[B]-CYCLOOCTA[D]-FURAN-2-YL]PROPIONAMIDE] | 110 to 250 | 189 to 190 °C |  |  |
| CC(C)(C)CC(=O)Nc1ccc2oc3c(c2c1)CCCC3 [Example 3, 3,3-DIMETHYL-N-(6,7,8,9-TETRAHYDRO-DIBENZOFURAN-2-YL)-BUTYRAMIDE] | 3000 to 11000 | 164 to 165 °C |  |  |
| O=C(CC1CCCCC1)Nc1ccc2oc3c(c2c1)CCCC3 [Example 7, 2-CYCLOHEXYL-N-(6,7,8,9-TETRAHYDRO-DIBENZOFURAN-2-YL)-ACETAMIDE] | 10000 to 15000 | 189 to 191 °C |  |  |
| O=C(CO)Nc1ccc2oc3c(c2c1)CCCCCC3 [Example 80, N-6,7,8,9,10,11-HEXAHYDROBENZO[B]CYCLOOCTA[D]FURAN-2-YL-2-HYDROXYACETAMIDE] |  |  | 30 to 50 |  |
| CC(C)(C)OCC(=O)Nc1ccc2oc3c(c2c1)CCCCC3 [Example 48, 2-TERT-BUTOXY-N-7,8,9,10-TETRAHYDRO-6H-BENZO[B]CYCLOHEPTA[D]FURAN-2-YLACETAMIDE] |  |  |  | 10 to 15 |
| CC(C)CC(=O)Nc1ccc2oc3c(c2c1)CCCC3 [Example 2, 3-METHYL-N-(6,7,8,9-TETRAHYDRO-DIBENZOFURAN-2-YL)-BUTYRAMIDE] | 1200 to 4000 | 154 to 157 °C |  |  |
| CC(C)(C)c1ccc(C(=O)Nc2ccc3oc4c(c3c2)CCCCC4)cc1 [Example 33, 4-TERT-BUTYL-N-(7,8,9,10-TETRAHYDRO-6H-BENZO[B]CYCLOHEPTA[D]FURAN-2-YL)BENZAMIDE] | 2000 to 3000 |  |  |  |
| CCOC(=O)Nc1ccc2oc3c(c2c1)CCCCC3 [Example 85, ETHYL 7,8,9,10-TETRAHYDRO-6H-BENZO[B]CYCLOHEPTA[D]FURAN-2-YLCARBAMATE] |  |  | 40 to 60 |  |
| CC(C)(C)C(=O)Nc1ccc2oc3c(c2c1)CCCC3 [Example 1, 2,2-DIMETHYL-N-(6,7,8,9-TETRAHYDRO-DIBENZOFURAN-2-YL)-PROPIONAMIDE] | 200 to 700 | 210 to 211 °C |  |  |
| CC(C)(C)c1ccc(C(=O)Nc2ccc3oc4c(c3c2)CCCCCC4)cc1 [Example 68, 4-TERT-BUTYL-N-(6,7,8,9,10,11-HEXAHYDROBENZO[B]CYCLOOCTA[D]FURAN-2-YL)BENZAMIDE] |  |  | 20 to 40 |  |
| O=C(CCl)Nc1ccc2oc3c(c2c1)CCCCC3 [Example 39, 2-CHLORO-N-7,8,9,10-TETRAHYDRO-6H-BENZO[B]CYCLOHEPTA[D]FURAN-2-YLACETAMIDE] |  |  |  | 15 to 35 |
| O=C(Nc1ccc2oc3c(c2c1)CCCC3)c1ccc(C(F)(F)F)cc1 [Example 20, N-(6,7,8,9-TETRAHYDRODIBENZO[B,D]FURAN-2-YL)-4-(TRIFLUOROMETHYL)BENZAMIDE] |  |  | 15 to 40 |  |
| CCC(=O)Nc1ccc2oc3c(c2c1)CCCCC3 [Example 34, N-(7,8,9,10-TETRAHYDRO-6H-BENZO[B]CYCLOHEPTA[D]FURAN-2-YL)PROPANAMIDE] | 500 to 800 |  |  |  |

Further lines, with some results ahead:

| IC50 [1, 2] [nM] | melting point | Compound | inhibition at 30 µM [1, 3] [%] | inhibition at 30 µM [1] [%] |
| --- | --- | --- | --- | --- |
|  | 195.5 to 197.5 °C | CC(=O)Nc1ccc2oc3c(c2c1)CCCC3 [Example 11, N-(6,7,8,9-TETRAHYDRO-DIBENZOFURAN-2-YL)-ACETAMIDE] | 20 to 30 |  |
| 4000 to 10000 | 180 to 181 °C | O=C(CC1CCCCC1)Nc1ccc2oc3c(c2c1)CCCCCC3 [Example 65, 2-CYCLOHEXYL-N-[6,7,8,9,10,11-HEXAHYDRO-BENZO[B]-CYCLOOCTA[D]FURAN-2-YL]ACETAMIDE] |  |  |
|  | 207 to 208 °C | Nc1ccc(C(=O)Nc2ccc3oc4c(c3c2)CCCC4)cc1 [Example 16, 4-AMINO-N-(6,7,8,9-TETRAHYDRO-DIBENZOFURAN-2-YL)-BENZAMIDE] | 5 to 10 |  |
|  | 178 to 180 °C | O=C(Nc1ccc2oc3c(c2c1)CCCC3)c1ccccc1 [Example 18, N-(6,7,8,9-TETRAHYDRO-DIBENZOFURAN-2-YL)-BENZAMIDE] | 40 to 50 |  |
|  | 209 to 210 °C | Cc1ccccc1C(=O)Nc1ccc2oc3c(c2c1)CCCC3 [Example 12, 2-METHYL-N-(6,7,8,9-TETRAHYDRO-DIBENZOFURAN-2-YL)-BENZAMIDE] | 20 to 30 |  |
| 3000 to 5000 | 179 to 180 °C | CCN(CC)C(=O)Nc1ccc2oc3c(c2c1)CCCC3 [Example 84, 1,1-DIETHYL-3-(6,7,8,9-TETRAHYDRO-DIBENZOFURAN-2-YL)-UREA] |  |  |
| 9100 to 12000 | 180 to 181 °C | O=C(Cc1ccccc1)Nc1ccc2oc3c(c2c1)CCCC3 [Example 4, 2-PHENYL-N-(6,7,8,9-TETRAHYDRO-DIBENZOFURAN-2-YL)-ACETAMIDE] |  |  |
|  | 247 to 248 °C | O=C(Nc1ccc2oc3c(c2c1)CCCC3)C12CC3CC(CC(C3)C1)C2 [Example 5, ADAMANTANE-1-CARBOXYLIC ACID (6,7,8,9-TETRAHYDRO-DIBENZOFURAN-2-YL)-AMIDE] | 10 to 30 |  |
| 1000 to 5000 | 162 to 163 °C | CC(C)CC(=O)Nc1ccc2oc3c(c2c1)CCCCC3 [Example 28, 3-METHYL-N-[7,8,9,10-TETRAHYDRO-6H-Benzo[B]-Cyclohepta[D]FURAN-2-YL]BUTYRAMIDE] |  |  |
| 7000 to 10000 |  | CC(C)(C)OC(=O)N[C@@H](Cc1ccncc1)C(=O)Nc1ccc2oc3c(c2c1)CCCCC3 [Example 55, TERT-BUTYL [(1S)-2-OXO-1-(PYRIDIN-4-YLMETHYL)-2-(7,8,9,10-TETRAHYDRO-6H-BENZO[B]CYCLOHEPTA[D]FURAN-2-YLAMINO)ETHYL]CARBAMATE] |  |  |
| 3000 to 8000 | 162 to 163 °C | CC(C)CC(=O)Nc1ccc2oc3c(c2c1)CCC3 [Example 25, N-(2,3-DIHYDRO-1H-CYCLOPENTA[B]BENZOFURAN-7-YL)-3-METHYL-BUTYRAMIDE] |  |  |
| 350 to 530 | 195.5 to 197 °C | CC(C)(C)CC(=O)Nc1ccc2oc3c(c2c1)CCC3 [Example 23, N-(2,3-DIHYDRO-1H-CYCLOPENTA[B]BENZOFURAN-7-YL)-3,3-DIMETHYL-BUTYRAMIDE] |  |  |
